Values quoted from earlier work in article PMC7187627 (Antimicrobial Agents and Chemotherapy, 2019).

Assays:
C. difficile = tested on: C. difficile; parameters: method as in PMID 19258353, PMID 19251726; details: in vivo model of CDI, compared with vancomycin; cited from earlier work
[1] = tested on: Bacterial strains that express type 2 MetRS; parameters: method as in PMID 19240076; details: most Gram-negative bacteria, Bacteroides, bifidobacteria, actinobacteria, lactobacilli; cited from earlier work

O=c1cc(NCCCN[C@@H]2CCOc3c(Br)cc(Br)cc32)[nH]c2ccsc12 [CRS3123]
protection of hamsters against recurrence (C. difficile): superior to vancomycin | susceptibility of strains expressing type 2 MetRS [1]: virtually no susceptibility
